Source: patent US8354455B2, “Prodrugs containing novel bio-cleavable linkers” (Piramal Enterprises Limited and Apparao Satyam, priority 2004, dated 2013)
In brackets after ≈: the same amount, converted by molar mass.

Legend:
rats = details: rat, in vivo, po, 50 mg/kg
Description: Acute Toxicity—Minimal Motor Impairment (MMI): To assess a compound's undesirable side effects (toxicity), animals were monitored for overt signs of impaired neurological or muscular function.
Groups of at least 8 rats received various doses of the candidate compound until at least two points were established between the limits of 100 percent protection or toxicity and zero percent protection or minimal toxicity. The 95 percent confidence limits, slopes of the regression lines and standard errors of the slopes were calculated for each quantitative determination. Rats received test compounds orally.
This secondary evaluation determines the time to peak effect (TPE), neurotoxicity, median effective dose (ED50) and biological response.

MES-induced seizures [1] = test: animal or person; type: in vivo, rats; details: Test 2, rats p.o., 50 mg/kg
convulsant metrazol = test: Subcutaneous Metrazol Seizure Threshold Test (scMET), Test 1, mice i.p.; type: in vivo; details: mice, i.p.
MES-induced seizures [2] = test: Maximal Electroshock Test (MES), Test 1, mice i.p.; type: in vivo
[3] = Water solubility (HPLC of supernatant); type: physicochemical
Description: Water solubility: Paclitaxel and its prodrug I-S22-PD2 (2 mg each) were suspended in 1 mL water or PBS-buffer (pH 7.4). The suspensions were sonicated for 15 min and centrifuged (13,000 g) for 10 min. The supernatant was analyzed using HPLC.
HPLC: Waters RP18 column ([…], X-Terra); DAD-HP Agilent (Model 1100); eluent: CH3CN:H2O (gradient 0-100% acetonitrile in 0-15 min). The UV-detector was set at […]. The concentrations were determined by measuring the relative area of paclitaxel or I-S22-PD2. […] (i.e., ˜0.2 mg/mL).

SMILES	Toxicity (number of animals exhibiting toxicity/number of animals tested) (rats)	MES (number of animal protected/number of animal tested) (MES-induced seizures [1]; 0.50 h)	MES (number of animal protected/number of animal tested) (MES-induced seizures [1]; 1.00 h)	MES (number of animal protected/number of animal tested) (MES-induced seizures [1]; 2.00 h)	MES (number of animal protected/number of animal tested) (MES-induced seizures [1]; 4.00 h)	toxicity (in words) (mice; Test 1, mice i.p.)	Rotorod Toxicity 0.5 h (mice; mice, i.p., 0.5 h, symbol = dose with toxicity)	Rotorod Toxicity 4.0 h (mice; mice, i.p., 4.0 h, symbol = dose with toxicity)	ScMET (number of animal protected/number of animal tested) (convulsant metrazol; 0.5 h, 300 mg/kg (+))	ScMET 0.5 h (convulsant metrazol; 0.5 h, symbol = dose with activity)	ScMET 4.0 h (convulsant metrazol; 4.0 h, symbol = dose with activity)	activity in MES model (in words) (MES-induced seizures [2]; Test 1, mice i.p.)	MES (number of animal protected/number of animal tested) (MES-induced seizures [2]; mice, i.p., 0.5 h, 300 mg/kg (+))	MES 0.5 h (MES-induced seizures [2]; mice, i.p., 0.5 h, symbol = dose with activity)	MES 4.0 h (MES-induced seizures [2]; mice, i.p., 4.0 h, symbol = dose with activity)	solubility at 15 min ([3]; aqueous buffer, thermodynamic from solid, 2 mg suspended in 1 mL water or PBS-buffer (pH 7.4), sonicated, centrifuged)	solubility relative to paclitaxel ([3]; water or PBS-buffer (pH 7.4))
CCOC(=O)CC1(CNC(=O)OCCSSCC(=O)OC)CCCCC1 [I-A1-PD5]	0/4	0/4	0/4	1/4	1/4	no or mild toxicity	+ (+ = activity or toxicity at 300 mg/kg)	— (— = no activity or no toxicity at 300 mg/kg)	(3/5)	+ (+ = activity or toxicity at 300 mg/kg)	— (— = no activity or no toxicity at 300 mg/kg)	active in MES	(1/1)	+ (+ = activity or toxicity at 300 mg/kg)	— (— = no activity or no toxicity at 300 mg/kg)	–	–
CC(=O)O[C@H]1C(=O)[C@@]2(C)C([C@H](OC(=O)c3ccccc3)[C@]3(O)C[C@H](OC(=O)[C@H](OC(=O)OCCSSCCOC(=O)CCC(=O)O)[C@@H](NC(=O)c4ccccc4)c4ccccc4)C(C)=C1C3(C)C)[C@]1(OC(C)=O)CO[C@@H]1C[C@@H]2O (some centres unmarked) [I-S22-PD2]	–	–	–	–	–	–	–	–	–	–	–	–	–	–	–	~200 µg/mL (≈ 176 µM)	20 times
